Laboratory results as given in patent US20200231638A1, “STABILIZED ANTI-MICROBIAL PEPTIDES” (priority 2015, published 2020).
Bridge positions count the residues as written; N and C are the ends. Square brackets hold non-standard residues; d marks the D form. Peptide text beside a SMILES is read from it. S5 = C=CCCC[C@](C)(N)C(=O)O; Nle = CCCC[C@H](N)C(=O)O

Columns and labels:
E. coli = type: cell-based, Escherichia coli
How it was run: (§1)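 Read-out is visible growth: the MIC is the lowest peptide concentration showing none after 20-24 hours at 37° C. Bacteria in refined (anion-exchanged) Mueller-Hinton broth were seeded at a final 5×10^5 CFU/ml onto water-based peptide serial dilutions.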

B. cereus = type: cell-based, Bacillus cereus
How it was run: as §1

S. aureus = type: cell-based, Staphylococcus aureus
How it was run: as §1

P. aeruginosa = type: cell-based, Pseudomonas aeruginosa
How it was run: as §1

human red blood cells = type: cell-based; conditions: red cells of human, 1 h, 25
How it was run: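 Hemolysis expressed as absorbance of released hemoglobin (570 nm) normalized between untreated and 1% Triton-X100 controls, with MHC taken as peptide concentration giving under 1% release. Peptide dilutions were exposed for 1 h at 37° C to a 1% (v/v) suspension of washed human red cells in PBS.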

Row | Structure (SMILES) | MIC E. coli (E. coli) [µg/mL] | MIC B. cereus (B. cereus) [µg/mL] | MIC S. aureus (S. aureus) [µg/mL] | MIC P. aeruginosa (P. aeruginosa) [µg/mL] | % Hemolysis at 25 μg/ml (human red blood cells) [%]
1 | CCCC[C@H](NC(=O)[C@]1(C)CCCC=CCCC[C@](C)(NC(=O)[C@H](C)NC(=O)[C@H](CCCCN)NC(=O)[C@@H](C)NC(=O)[C@H](Cc2ccccc2)NC(=O)[C@H](CCCCN)NC(=O)[C@H](CCCCN)NC(=O)[C@H](C)NC(=O)[C@H](CO)NC(=O)[C@H](Cc2c[nH]cn2)NC(=O)[C@H](CC(C)C)NC(=O)[C@H](Cc2ccccc2)NC(=O)[C@H](CCCCN)NC(=O)CNC(=O)[C@@H](NC(=O)CN)[C@@H](C)CC)C(=O)N[C@@H](C(C)C)C(=O)NCC(=O)N[C@@H](CCC(=O)O)C(=O)N1)C(=O)N[C@@H](CC(N)=O)C(=O)N[C@@H](CO)C(N)=O [Mag(i + 4)15(G13a)] (H-GIGKFLHSAKKF[dA]KA[S5]VGE[S5][Nle]NS-NH2; staple 16-20) | 1.6 | 6.2 | 6.2 | 3.1 | 4.3
2 | CCCC[C@H](NC(=O)[C@]1(C)CCCC=CCCC[C@](C)(NC(=O)[C@H](C)NC(=O)[C@H](CCCCN)NC(=O)[C@@H](CCCCN)NC(=O)[C@H](Cc2ccccc2)NC(=O)[C@H](CCCCN)NC(=O)[C@H](CCCCN)NC(=O)[C@H](C)NC(=O)[C@H](CO)NC(=O)[C@H](Cc2c[nH]cn2)NC(=O)[C@H](CC(C)C)NC(=O)[C@H](Cc2ccccc2)NC(=O)[C@H](CCCCN)NC(=O)CNC(=O)[C@@H](NC(=O)CN)[C@@H](C)CC)C(=O)N[C@@H](C(C)C)C(=O)NCC(=O)N[C@@H](CCC(=O)O)C(=O)N1)C(=O)N[C@@H](CC(N)=O)C(=O)N[C@@H](CO)C(N)=O [Mag(i + 4)15(G13k)] (H-GIGKFLHSAKKF[dK]KA[S5]VGE[S5][Nle]NS-NH2; staple 16-20) | 3.1 | 50 | >50 | 25 | 2.1
3 | CCCC[C@H](NC(=O)[C@]1(C)CCCC=CCCC[C@](C)(NC(=O)[C@H](C)NC(=O)[C@H](CCCCN)NC(=O)CNC(=O)[C@H](Cc2ccccc2)NC(=O)[C@H](CCCCN)NC(=O)[C@H](CCCCN)NC(=O)[C@H](C)NC(=O)[C@H](CO)NC(=O)[C@H](Cc2c[nH]cn2)NC(=O)[C@H](CC(C)C)NC(=O)[C@H](Cc2ccccc2)NC(=O)[C@H](CCCCN)NC(=O)CNC(=O)[C@@H](NC(=O)CN)[C@@H](C)CC)C(=O)N[C@@H](C(C)C)C(=O)N[C@@H](CCC(=O)O)C(=O)N[C@@H](CCC(=O)O)C(=O)N1)C(=O)N[C@@H](CC(N)=O)C(=O)N[C@@H](CO)C(N)=O [Mag(i + 4)15(G18E), GIGKFLHSAKKFGKAXVEEXBNS] (H-GIGKFLHSAKKFGKA[S5]VEE[S5][Nle]NS-NH2; staple 16-20) | 3.1 | 6.2 | 12.5 | 12.5 | 4.8
4 | CCCC[C@H](NC(=O)[C@]1(C)CCCC=CCCC[C@](C)(NC(=O)[C@H](C)NC(=O)[C@H](CCCCN)NC(=O)CNC(=O)[C@H](Cc2ccccc2)NC(=O)[C@H](CCCCN)NC(=O)[C@H](CCCCN)NC(=O)[C@H](C)NC(=O)[C@H](CO)NC(=O)[C@H](Cc2c[nH]cn2)NC(=O)[C@H](CC(C)C)NC(=O)[C@H](Cc2ccccc2)NC(=O)[C@H](CCCCN)NC(=O)CNC(=O)[C@@H](NC(=O)CN)[C@@H](C)CC)C(=O)N[C@@H](C(C)C)C(=O)N[C@@H](Cc2c[nH]cn2)C(=O)N[C@@H](CCC(=O)O)C(=O)N1)C(=O)N[C@@H](CC(N)=O)C(=O)N[C@@H](CO)C(N)=O [Mag(i + 4)15(G18H), GIGKFLHSAKKFGKAXVHEXBNS] (H-GIGKFLHSAKKFGKA[S5]VHE[S5][Nle]NS-NH2; staple 16-20) | 1.6 | 3.1 | 6.2 | 6.2 | 6.8

Continued, in another order:

Row | MIC E. coli (E. coli) [µg/mL] | MIC B. cereus (B. cereus) [µg/mL] | MIC S. aureus (S. aureus) [µg/mL] | MIC P. aeruginosa (P. aeruginosa) [µg/mL] | Structure (SMILES) | % Hemolysis at 25 μg/ml (human red blood cells) [%]
5 | 1.6 | 3.1 | 12.5 | 3.1 | CCCC[C@H](NC(=O)[C@]1(C)CCCC=CCCC[C@](C)(NC(=O)[C@H](C)NC(=O)[C@H](CCCCN)NC(=O)CNC(=O)[C@H](Cc2ccccc2)NC(=O)[C@H](CCCCN)NC(=O)[C@H](CCCCN)NC(=O)[C@H](C)NC(=O)[C@H](CO)NC(=O)[C@H](Cc2c[nH]cn2)NC(=O)[C@H](CC(C)C)NC(=O)[C@H](Cc2ccccc2)NC(=O)[C@H](CCCCN)NC(=O)CNC(=O)[C@@H](NC(=O)CN)[C@@H](C)CC)C(=O)N[C@@H](C(C)C)C(=O)N[C@@H](CCCCN)C(=O)N[C@@H](CCC(=O)O)C(=O)N1)C(=O)N[C@@H](CC(N)=O)C(=O)N[C@@H](CO)C(N)=O [Mag(i + 4)15(G18K), GIGKFLHSAKKFGKAXVKEXBNS] (H-GIGKFLHSAKKFGKA[S5]VKE[S5][Nle]NS-NH2; staple 16-20) | 10.1
6 | 3.1 | 6.2 | 25 | 12.5 | CCCC[C@H](NC(=O)[C@]1(C)CCCC=CCCC[C@](C)(NC(=O)[C@H](C)NC(=O)[C@H](CCCCN)NC(=O)CNC(=O)[C@H](Cc2ccccc2)NC(=O)[C@H](CCCCN)NC(=O)[C@H](CCCCN)NC(=O)[C@H](C)NC(=O)[C@H](CO)NC(=O)[C@H](CCC(=O)O)NC(=O)[C@H](CC(C)C)NC(=O)[C@H](Cc2ccccc2)NC(=O)[C@H](CCCCN)NC(=O)CNC(=O)[C@@H](NC(=O)CN)[C@@H](C)CC)C(=O)N[C@@H](C(C)C)C(=O)NCC(=O)N[C@@H](CCC(=O)O)C(=O)N1)C(=O)N[C@@H](CC(N)=O)C(=O)N[C@@H](CO)C(N)=O [Mag(i + 4)15(H7E), GIGKFLESAKKFGKAXVGEXBNS] (H-GIGKFLESAKKFGKA[S5]VGE[S5][Nle]NS-NH2; staple 16-20) | 2.9
7 | 1.6 | 3.1 | 6.2 | 3.1 | CCCC[C@H](NC(=O)[C@]1(C)CCCC=CCCC[C@](C)(NC(=O)[C@H](C)NC(=O)[C@H](CCCCN)NC(=O)CNC(=O)[C@H](Cc2ccccc2)NC(=O)[C@H](CCCCN)NC(=O)[C@H](CCCCN)NC(=O)[C@H](C)NC(=O)[C@H](CO)NC(=O)[C@H](CCCCN)NC(=O)[C@H](CC(C)C)NC(=O)[C@H](Cc2ccccc2)NC(=O)[C@H](CCCCN)NC(=O)CNC(=O)[C@@H](NC(=O)CN)[C@@H](C)CC)C(=O)N[C@@H](C(C)C)C(=O)NCC(=O)N[C@@H](CCC(=O)O)C(=O)N1)C(=O)N[C@@H](CC(N)=O)C(=O)N[C@@H](CO)C(N)=O [Mag(i + 4)15(H7K), GIGKFLKSAKKFGKAXVGEXBNS] (H-GIGKFLKSAKKFGKA[S5]VGE[S5][Nle]NS-NH2; staple 16-20; N-terminus and C-terminus assumed) | 3.1
8 | 12.5 | >50 | >50 | >50 | CCCC[C@H](NC(=O)[C@]1(C)CCCC=CCCC[C@](C)(NC(=O)[C@H](C)NC(=O)[C@H](CCCCN)NC(=O)CNC(=O)[C@H](Cc2ccccc2)NC(=O)[C@H](CCCCN)NC(=O)[C@H](CCCCN)NC(=O)[C@H](C)NC(=O)[C@H](CO)NC(=O)[C@H](Cc2c[nH]cn2)NC(=O)[C@H](CC(C)C)NC(=O)[C@H](Cc2ccccc2)NC(=O)[C@H](CCCCN)NC(=O)CNC(=O)[C@H](CCC(=O)O)NC(=O)CN)C(=O)N[C@@H](C(C)C)C(=O)NCC(=O)N[C@@H](CCC(=O)O)C(=O)N1)C(=O)N[C@@H](CC(N)=O)C(=O)N[C@@H](CO)C(N)=O [Mag(i + 4)15(I2E), GEGKFLHSAKKFGKAXVGEXBNS] (H-GEGKFLHSAKKFGKA[S5]VGE[S5][Nle]NS-NH2; staple 16-20) | 3.6
9 | 1.6 | 12.5 | 23 | 3.1 | CCCC[C@H](NC(=O)[C@]1(C)CCCC=CCCC[C@](C)(NC(=O)[C@H](C)NC(=O)[C@H](CCCCN)NC(=O)CNC(=O)[C@H](Cc2ccccc2)NC(=O)[C@H](CCCCN)NC(=O)[C@H](CCCCN)NC(=O)[C@H](C)NC(=O)[C@H](CO)NC(=O)[C@H](Cc2c[nH]cn2)NC(=O)[C@H](CC(C)C)NC(=O)[C@H](Cc2ccccc2)NC(=O)[C@H](CCCCN)NC(=O)CNC(=O)[C@H](CCCCN)NC(=O)CN)C(=O)N[C@@H](C(C)C)C(=O)NCC(=O)N[C@@H](CCC(=O)O)C(=O)N1)C(=O)N[C@@H](CC(N)=O)C(=O)N[C@@H](CO)C(N)=O [Mag(i + 4)15(I2K), GKGKFLHSAKKFGKAXVGEXBNS] (H-GKGKFLHSAKKFGKA[S5]VGE[S5][Nle]NS-NH2; staple 16-20) | 2.3
10 | 12.5 | 50 | >50 | >50 | CCCC[C@H](NC(=O)[C@]1(C)CCCC=CCCC[C@](C)(NC(=O)[C@H](C)NC(=O)[C@H](CCCCN)NC(=O)CNC(=O)[C@H](Cc2ccccc2)NC(=O)[C@H](CCCCN)NC(=O)[C@H](CCCCN)NC(=O)[C@H](C)NC(=O)[C@H](CO)NC(=O)[C@H](Cc2c[nH]cn2)NC(=O)[C@H](CC(C)C)NC(=O)[C@H](Cc2ccccc2)NC(=O)[C@H](CCC(=O)O)NC(=O)CNC(=O)[C@@H](NC(=O)CN)[C@@H](C)CC)C(=O)N[C@@H](C(C)C)C(=O)NCC(=O)N[C@@H](CCC(=O)O)C(=O)N1)C(=O)N[C@@H](CC(N)=O)C(=O)N[C@@H](CO)C(N)=O [Mag(i + 4)15(K4E), GIGEFLHSAKKFGKAXVGEXBNS] (H-GIGEFLHSAKKFGKA[S5]VGE[S5][Nle]NS-NH2; staple 16-20) | 2.2
